Conditions: Liquid, Vibrating wire viscometry

Cc1ccccc1 [toluene]
viscosity [mPa·s]
Conditions | 273.13 K | 298.15 K | 323.16 K | 343.16 K | 363.16 K
1000 kPa | 0.7735 | 0.5573 | 0.4222 | 0.3495 | 0.2941
5000 kPa | 0.7996 | 0.5744 | 0.4359 | 0.3611 | 0.3047
10000 kPa | 0.832 | 0.5969 | 0.4531 | 0.3757 | 0.3173
20000 kPa | 0.8994 | 0.6394 | 0.4894 | 0.4054 | 0.3436
30000 kPa | 0.969 | 0.6892 | 0.5242 | 0.4367 | 0.3694

F/C=C/C(F)(F)F [trans-1,3,3,3-tetrafluoropropene]
Conditions | viscosity [mPa·s]
243.16 K, 61 kPa | 0.3906
243.16 K, 1000 kPa | 0.395
243.16 K, 3000 kPa | 0.4028
243.16 K, 5000 kPa | 0.4116
243.16 K, 10000 kPa | 0.4321
243.16 K, 15000 kPa | 0.4532
243.16 K, 20000 kPa | 0.4742
243.16 K, 25000 kPa | 0.4951
243.16 K, 30000 kPa | 0.517
253.16 K, 97 kPa | 0.3409
253.16 K, 1000 kPa | 0.3462
253.16 K, 3000 kPa | 0.3538
253.16 K, 5000 kPa | 0.3613
253.16 K, 10000 kPa | 0.381
253.16 K, 15000 kPa | 0.3999
253.16 K, 20000 kPa | 0.4192
253.16 K, 25000 kPa | 0.4374
253.16 K, 30000 kPa | 0.4554
263.16 K, 148 kPa | 0.2942
263.16 K, 1000 kPa | 0.3043
263.16 K, 3000 kPa | 0.3119
263.16 K, 5000 kPa | 0.3189
263.16 K, 10000 kPa | 0.3358
263.16 K, 15000 kPa | 0.3534
263.16 K, 20000 kPa | 0.3707
263.16 K, 25000 kPa | 0.3875
263.16 K, 30000 kPa | 0.4047
273.15 K, 217 kPa | 0.2572
273.15 K, 1000 kPa | 0.2626
273.15 K, 3000 kPa | 0.2702
273.15 K, 5000 kPa | 0.2776
273.15 K, 10000 kPa | 0.2949
273.15 K, 15000 kPa | 0.3127
273.15 K, 20000 kPa | 0.3284
273.15 K, 25000 kPa | 0.3451
273.15 K, 30000 kPa | 0.3616
283.14 K, 308 kPa | 0.2271
283.14 K, 1000 kPa | 0.2318
283.14 K, 3000 kPa | 0.2383
283.14 K, 5000 kPa | 0.2442
283.14 K, 10000 kPa | 0.2602
283.14 K, 15000 kPa | 0.2755
283.14 K, 20000 kPa | 0.2908
283.14 K, 25000 kPa | 0.3061
283.14 K, 30000 kPa | 0.3203
293.15 K, 428 kPa | 0.2016
293.15 K, 1000 kPa | 0.2035
293.15 K, 3000 kPa | 0.2097
293.15 K, 5000 kPa | 0.216
293.15 K, 10000 kPa | 0.2315
293.15 K, 15000 kPa | 0.2459
293.15 K, 20000 kPa | 0.2606
293.15 K, 25000 kPa | 0.2741
293.15 K, 30000 kPa | 0.2877
303.15 K, 579 kPa | 0.179
303.15 K, 1000 kPa | 0.1816
303.15 K, 3000 kPa | 0.1875
303.15 K, 5000 kPa | 0.1933
303.15 K, 10000 kPa | 0.2085
303.15 K, 15000 kPa | 0.2227
303.15 K, 20000 kPa | 0.2364
303.15 K, 25000 kPa | 0.2495
303.15 K, 30000 kPa | 0.2625
313.14 K, 767 kPa | 0.1587
313.14 K, 1000 kPa | 0.1601
313.14 K, 3000 kPa | 0.1663
313.14 K, 5000 kPa | 0.1728
313.14 K, 10000 kPa | 0.1873
313.14 K, 15000 kPa | 0.2008
313.14 K, 20000 kPa | 0.2151
313.14 K, 25000 kPa | 0.2283
313.14 K, 30000 kPa | 0.2401
323.16 K, 998 kPa | 0.1405
323.16 K, 3000 kPa | 0.1479
323.16 K, 5000 kPa | 0.1539
323.16 K, 10000 kPa | 0.1687
323.16 K, 15000 kPa | 0.183
323.16 K, 20000 kPa | 0.1968
323.16 K, 25000 kPa | 0.2093
323.16 K, 30000 kPa | 0.221
333.16 K, 1277 kPa | 0.1239
333.16 K, 3000 kPa | 0.1305
333.16 K, 5000 kPa | 0.1373
333.16 K, 10000 kPa | 0.1527
333.16 K, 15000 kPa | 0.1671
333.16 K, 20000 kPa | 0.1796
333.16 K, 25000 kPa | 0.1914
333.16 K, 30000 kPa | 0.2033
343.16 K, 1611 kPa | 0.1085
343.16 K, 3000 kPa | 0.115
343.16 K, 5000 kPa | 0.1227
343.16 K, 10000 kPa | 0.1383
343.16 K, 15000 kPa | 0.1527
343.16 K, 20000 kPa | 0.1657
343.16 K, 25000 kPa | 0.1773
343.16 K, 30000 kPa | 0.1888
353.16 K, 2008 kPa | 0.0939
353.16 K, 3000 kPa | 0.0993
353.16 K, 5000 kPa | 0.1072
353.16 K, 10000 kPa | 0.1241
353.16 K, 15000 kPa | 0.139
353.16 K, 20000 kPa | 0.1516
353.16 K, 25000 kPa | 0.1638
353.16 K, 30000 kPa | 0.1749
363.16 K, 2475 kPa | 0.079
363.16 K, 3000 kPa | 0.0833
363.16 K, 5000 kPa | 0.0932
363.16 K, 10000 kPa | 0.1125
363.16 K, 15000 kPa | 0.1273
363.16 K, 20000 kPa | 0.1401
363.16 K, 25000 kPa | 0.1516
363.16 K, 30000 kPa | 0.1622
373.17 K, 3026 kPa | 0.0632
373.17 K, 5000 kPa | 0.0809
373.17 K, 10000 kPa | 0.1013
373.17 K, 15000 kPa | 0.1155
373.17 K, 20000 kPa | 0.1286
373.17 K, 25000 kPa | 0.1403
373.17 K, 30000 kPa | 0.1514
